The supplement of paper PMC10307832

Assays:
Assay in all cases: relative viability (nuclei count vs DMSO), 5 days (fraction); higher = more cells survive
Alisertib + Alpelisib = compound: COc1cc(Nc2ncc3c(n2)-c2ccc(Cl)cc2C(c2c(F)cccc2OC)=NC3)ccc1C(=O)O [Alisertib] + Cc1nc(NC(=O)N2CCC[C@H]2C(N)=O)sc1-c1ccnc(C(C)(C)C(F)(F)F)c1 [Alpelisib] (partner 2 µM)
In short: (§1)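 Lung cancer cell lines in 1536-well plates were dosed by pin tool the day after seeding, either with one drug alone or with a fixed anchor-drug dose plus five library-drug doses (not always all listed) in √10 steps. After 5 days, cells were fixed and their nuclei stained in one step (final 0.05% Triton X-100, 1% formaldehyde, 1 ug/ml Hoechst), then counted on 4× images. Relative viability is the nuclei count in treated wells divided by that in vehicle wells. Values are medians of duplicate plates.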

Alisertib + Linsitinib = compound: COc1cc(Nc2ncc3c(n2)-c2ccc(Cl)cc2C(c2c(F)cccc2OC)=NC3)ccc1C(=O)O [Alisertib] + C[C@]1(O)C[C@@H](c2nc(-c3ccc4ccc(-c5ccccc5)nc4c3)c3c(N)nccn32)C1 [Linsitinib] (partner 1 µM)
In short: as §1

Alisertib + Decitabine = compound: COc1cc(Nc2ncc3c(n2)-c2ccc(Cl)cc2C(c2c(F)cccc2OC)=NC3)ccc1C(=O)O [Alisertib] + Nc1ncn([C@H]2C[C@H](O)[C@@H](CO)O2)c(=O)n1 [Decitabine] (partner 2 µM)
In short: as §1

Alisertib + Pictilisib = compound: COc1cc(Nc2ncc3c(n2)-c2ccc(Cl)cc2C(c2c(F)cccc2OC)=NC3)ccc1C(=O)O [Alisertib] + CS(=O)(=O)N1CCN(Cc2cc3nc(-c4cccc5[nH]ncc45)nc(N4CCOCC4)c3s2)CC1 [Pictilisib] (partner 1 µM)
In short: as §1

Cell Line | relative viability (Alisertib + Alpelisib; first compound 0.005 µM) | relative viability (Alisertib + Alpelisib; first compound 0.01581 µM) | relative viability (Alisertib + Alpelisib; first compound 0.05 µM) | relative viability (Alisertib + Alpelisib; first compound 0.1581 µM) | relative viability (Alisertib + Alpelisib; first compound 0.5 µM) | relative viability (Alisertib + Linsitinib; first compound 0.005 µM) | relative viability (Alisertib + Linsitinib; first compound 0.01581 µM) | relative viability (Alisertib + Linsitinib; first compound 0.05 µM) | relative viability (Alisertib + Linsitinib; first compound 0.1581 µM) | relative viability (Alisertib + Linsitinib; first compound 0.5 µM) | relative viability (Alisertib + Decitabine; first compound 0.005 µM) | relative viability (Alisertib + Decitabine; first compound 0.01581 µM) | relative viability (Alisertib + Decitabine; first compound 0.05 µM) | relative viability (Alisertib + Decitabine; first compound 0.1581 µM) | relative viability (Alisertib + Decitabine; first compound 0.5 µM) | relative viability (Alisertib + Pictilisib; first compound 0.005 µM) | relative viability (Alisertib + Pictilisib; first compound 0.01581 µM) | relative viability (Alisertib + Pictilisib; first compound 0.05 µM) | relative viability (Alisertib + Pictilisib; first compound 0.1581 µM) | relative viability (Alisertib + Pictilisib; first compound 0.5 µM)
NCI-H1993 | 0.625 | 0.652 | 0.538 | 0.625 | 0.573 | 0.685 | 0.659 | 0.606 | 0.613 | 0.578 | 0.356 | 0.561 | 0.539 | 0.383 | 0.356 | 0.895 | 0.785 | 0.67 | 0.568 | 0.778
NCI-H1437 | 0.91 | 0.836 | 0.425 | 0.213 | 0.112 | 0.951 | 0.775 | 0.365 | 0.15 | 0.104 | 0.5 | 0.519 | 0.439 | 0.27 | 0.209 | 0.341 | 0.378 | 0.219 | 0.123 | 0.0875
NCI-H596 |  | 0.478 | 0.481 | 0.351 | 0.172 |  | 1.02 | 0.969 | 0.967 | 0.404 | 1.07 | 1.01 | 1.01 | 0.708 | 0.505 |  | 0.412 | 0.433 | 0.214 | 0.242
201T | 0.985 | 0.997 | 0.964 | 0.783 | 0.378 | 0.99 | 1.07 | 1 | 0.745 | 0.348 | 0.837 | 0.847 | 0.72 | 0.582 | 0.802 | 0.623 | 0.676 | 0.671 | 0.326 | 0.327
NCI-H358 | 0.753 | 0.584 | 0.257 | 0.19 | 0.151 | 0.735 | 0.486 | 0.202 | 0.159 | 0.14 | 0.222 | 0.186 | 0.121 | 0.086 | 0.098 | 0.269 | 0.327 | 0.217 | 0.154 | 0.14
LOU-NH91 | 0.728 | 0.762 | 0.635 | 0.442 | 0.409 | 0.977 | 0.941 | 0.818 | 0.491 | 0.403 | 0.799 | 0.77 | 0.651 | 0.524 | 0.45 | 0.508 | 0.487 | 0.448 | 0.366 | 0.392
HOP-62 | 0.926 | 0.976 | 0.345 | 0.198 | 0.133 | 0.551 | 0.853 | 0.305 | 0.203 | 0.155 | 0.17 | 0.217 | 0.205 | 0.136 | 0.2 | 0.579 | 0.757 | 0.373 | 0.149 | 0.103
NCI-H1915 | 0.934 | 0.808 | 0.385 | 0.354 | 0.199 | 0.984 | 0.948 | 0.504 | 0.354 | 0.224 | 0.257 | 0.249 | 0.197 | 0.198 | 0.176 | 0.732 | 0.675 | 0.45 | 0.301 | 0.174
NCI-H3122 | 0.741 | 0.747 | 0.472 | 0.295 | 0.211 | 1.02 | 0.905 | 0.571 | 0.467 | 0.245 | 0.376 | 0.412 | 0.375 | 0.192 | 0.161 | 0.584 | 0.62 | 0.586 | 0.266 | 0.198
NCI-H1651 | 0.867 | 0.87 | 0.533 | 0.289 | 0.187 | 0.843 | 0.774 | 0.451 | 0.217 | 0.22 | 0.557 | 0.433 | 0.339 | 0.182 | 0.161 | 0.51 | 0.429 | 0.289 | 0.161 | 0.121
PC-14 | 0.901 | 0.84 | 0.686 | 0.277 | 0.106 | 0.91 | 0.848 | 0.774 | 0.222 | 0.117 | 0.173 | 0.187 | 0.154 | 0.057 | 0.0492 | 0.632 | 0.672 | 0.447 | 0.127 | 0.0567
NCI-H647 | 1.05 | 0.691 | 0.341 | 0.148 | 0.0808 | 1.15 | 0.883 | 0.373 | 0.287 | 0.0691 | 0.286 | 0.256 | 0.137 | 0.129 | 0.0775 | 0.42 | 0.449 | 0.274 | 0.137 | 0.0788
SW 1573 | 0.768 | 0.798 | 0.455 | 0.272 | 0.171 | 0.856 | 0.824 | 0.649 | 0.176 | 0.143 | 0.419 | 0.338 | 0.212 | 0.125 | 0.109 | 0.466 | 0.387 | 0.2 | 0.158 | 0.112
NCI-H441 | 0.787 | 0.528 | 0.172 | 0.153 | 0.157 | 0.504 | 0.333 | 0.243 | 0.129 | 0.129 | 0.227 | 0.197 | 0.137 | 0.152 | 0.153 | 0.402 | 0.229 | 0.118 | 0.139 | 0.123
NCI-H661 | 0.579 | 0.669 | 0.552 | 0.31 | 0.235 | 0.635 | 0.389 | 0.304 | 0.323 | 0.282 | 0.459 | 0.501 | 0.37 | 0.312 | 0.293 | 0.378 | 0.379 | 0.229 | 0.245 | 0.242
SK-MES-1 | 0.681 | 0.717 | 0.341 | 0.172 | 0.139 | 0.953 | 0.963 | 0.725 | 0.279 | 0.16 | 0.373 | 0.346 | 0.225 | 0.158 | 0.167 | 0.326 | 0.333 | 0.212 | 0.147 | 0.123
